Patent US5440016A, “Peptides of the formula (KFmoc) ZZZ and their uses” (priority 1993, dated 1995)
≈ marks a conversion by molar mass, not a printed value. Like-named read-outs stand apart in the source and are kept apart here. Square brackets hold non-standard residues; d marks the D form. Peptide text beside a SMILES is read from it. * marks the point of attachment. Fmoc = O=C(OCC1c2ccccc2-c2ccccc21)*

Key:
[1] = test system: Escherichia coli ATCC 25922
Method: (§1) Escherichia coli ATCC 25922 and P. aeruginosa ATCC 27853 were used as Gram-negative (-) and Staphylococcus aureus ATCC 29213 as Gram-positive (+) bacteria. Bacteria were grown overnight at 37° C. in Mueller-Hinton (MH) broth. This culture was reinoculated and incubated at 37° C. to reach the exponential phase of bacteria growth, i.e., a final bacterial suspension containing 10^5 to 5×10^5 colony-forming units (CFU)/ml. The concentration of cells was established by plating 100 μl of different dilutions of the culture solution (e.g., 10^-2, 10^-3 and 10^-4) onto solid agar plates.
(§2) Following an overnight incubation at 37° C., the CFU thus formed were counted on each agar plate. In 96-well tissue culture plates, as control blanks, eight wells per plate contained only medium, while as a positive growth control, eight other wells contained medium plus cells.
(§3) The plates were incubated overnight at 37° C., and the optical density (OD) determined at 620 nm after different times of incubation.

[2] = test system: Human red blood cells (RBCs); assay: Hemolytic activity; format: cell-based
[3] = test system: Candida albicans ATCC 10231
[4] = test system: Staphylococcus aureus ATCC 29213
Method: as §1, §2, §3

[5] = test system: Streptococcus sanguis ATCC 10556
[6] = Tables 2-5, concentration necessary to inhibit 50% growth
[7] = Tables 3-5, lower parts (unnatural amino acids)
[8] = Tables 15-17, lower parts (unnatural amino acids)
[9] = Tables 7-9, lower parts (unnatural amino acids)
[10] = Tables 11-13, lower parts (unnatural amino acids)

Compound | IC50 against E. coli [1, 6] [µg/mL] | HD50 (concentration necessary to lyse 50% of the cells) ([2]; Tables 18-21) [µg/mL] | IC50 against C. albicans ([3]; Tables 14-17) [µg/mL] | IC50 against S. aureus ([4]; Tables 6-9) [µg/mL] | IC50 against S. sanguis ([5]; Tables 10-13) [µg/mL] | IC50 against E. coli [1, 7] [μg/m] | IC50 against C. albicans [3, 8] [μg/m] | IC50 against S. aureus [4, 9] [μg/m] | IC50 against S. sanguis [5, 10] [μg/m] | HD50 (concentration necessary to lyse 50% of the cells) ([2]; Table 20, lower part) [μg/m]
N=C(N)NCCC[C@@H](NC(=O)[C@H](CCCCN)NC(=O)[C@H](Cc1c[nH]c2ccccc12)NC(=O)[C@H](CCCCN)NC(=O)OCC1c2ccccc2-c2ccccc21)C(N)=O [(KFmoc)WKr-NH2] (Fmoc-KWK[dR]-NH2) | 66 (≈ 78.8 µM) | 324 | 98 (≈ 117 µM) | 7 (≈ 8.35 µM) | 5 (≈ 5.97 µM) | – | – | – | – | –
(KFmoc)WY(KCBZ)-NH2 | – | – | – | – | – | 59 | 309 | 9 | 9 | –
CSCC[C@@H](NC(=O)[C@H](CCCCN)NC(=O)[C@H](Cc1c[nH]c2ccccc12)NC(=O)[C@H](CCCCN)NC(=O)OCC1c2ccccc2-c2ccccc21)C(N)=O [(KFmoc)WKm-NH2] (Fmoc-KWK[dM]-NH2) | 41 (≈ 50.4 µM) | 178 | 163 (≈ 200 µM) | 7 (≈ 8.61 µM) | 7 (≈ 8.61 µM) | – | – | – | – | –
NCCCC[C@H](NC(=O)OCC1c2ccccc2-c2ccccc21)C(=O)N[C@@H](Cc1c[nH]c2ccccc12)C(=O)N[C@@H](CCCCN)C(=O)N[C@H](Cc1ccccc1)C(N)=O [(KFmoc)WKf-NH2] (Fmoc-KWK[dF]-NH2) | 38 (≈ 45.8 µM) | 126 | 133 (≈ 160 µM) | 10 (≈ 12.1 µM) | 6 (≈ 7.24 µM) | – | – | – | – | –
(KFmoc)Wf(aABA)-NH2 | – | – | – | – | – | 21 | 72 | 6 | 7 | 241
(KFmoc)WK(Cys[ACM])-NH2 | 49 | – | 303 | 11 | 11 | – | – | – | – | –
C[C@@H](NC(=O)[C@H](CCCCN)NC(=O)[C@H](Cc1c[nH]c2ccccc12)NC(=O)[C@H](CCCCN)NC(=O)OCC1c2ccccc2-c2ccccc21)C(N)=O [(KFmoc)WKa-NH2] (Fmoc-KWK[dA]-NH2) | 60 (≈ 79.7 µM) | 437 | 200 (≈ 266 µM) | 7 (≈ 9.3 µM) | 8 (≈ 10.6 µM) | – | – | – | – | –
NCCCC[C@H](NC(=O)OCC1c2ccccc2-c2ccccc21)C(=O)N[C@@H](Cc1c[nH]c2ccccc12)C(=O)N[C@@H](Cc1ccc(O)cc1)C(=O)N1CCC[C@@H]1C(N)=O [(KFmoc)WYp-NH2] (Fmoc-KWY[dP]-NH2) | 84 (≈ 103 µM) | 76 | 165 (≈ 203 µM) | 5 (≈ 6.14 µM) | 5 (≈ 6.14 µM) | – | – | – | – | –
(KFmoc)WK(KCBZ)-NH2 | – | – | 161 | 9 | 9 | – | – | – | – | –
(KFmoc)Wf(Hyp)-NH2 | – | – | – | – | – | 44 | 95 | 5 | 8 | 37
(KFmoc)ci(dOrn)-NH2 | – | 77 | – | – | – | 20 | 121 | 4 | 2 | –
C[C@H](O)[C@@H](NC(=O)[C@H](Cc1ccc(O)cc1)NC(=O)[C@H](Cc1c[nH]c2ccccc12)NC(=O)[C@H](CCCCN)NC(=O)OCC1c2ccccc2-c2ccccc21)C(N)=O [(KFmoc)WYt-NH2] (Fmoc-KWY[dT]-NH2) | 81 (≈ 99 µM) | 37 | 161 (≈ 197 µM) | 9 (≈ 11 µM) | 8 (≈ 9.78 µM) | – | – | – | – | –
NCCCC[C@H](NC(=O)OCC1c2ccccc2-c2ccccc21)C(=O)N[C@@H](Cc1c[nH]c2ccccc12)C(=O)N[C@H](Cc1ccccc1)C(=O)N1CCC[C@@H]1C(N)=O [(KFmoc)Wfp-NH2] (Fmoc-KW[dF][dP]-NH2) | 30 (≈ 37.6 µM) | 65 | 347 (≈ 435 µM) | 7 (≈ 8.77 µM) | 6 (≈ 7.52 µM) | – | – | – | – | –
(KFmoc)Wf(KCBZ)-NH2 | – | – | – | – | – | 28 | 58 | 3 | 4 | 52
NCCCC[C@H](NC(=O)OCC1c2ccccc2-c2ccccc21)C(=O)N[C@@H](Cc1c[nH]c2ccccc12)C(=O)N[C@@H](CCCCN)C(=O)N[C@H](CCC(N)=O)C(N)=O [(KFmoc)WKq-NH2] (Fmoc-KWK[dQ]-NH2) | 57 (≈ 70.4 µM) | 483 | 291 (≈ 359 µM) | 7 (≈ 8.64 µM) | 7 (≈ 8.64 µM) | – | – | – | – | –
NCCCC[C@H](NC(=O)OCC1c2ccccc2-c2ccccc21)C(=O)N[C@@H](Cc1c[nH]c2ccccc12)C(=O)N[C@@H](CCCCN)C(=O)N[C@H](CC(N)=O)C(N)=O [(KFmoc)WKn-NH2] (Fmoc-KWK[dN]-NH2) | 47 (≈ 59 µM) | – | 233 (≈ 293 µM) | 10 (≈ 12.6 µM) | 8 (≈ 10.1 µM) | – | – | – | – | –
NCCCC[C@H](NC(=O)OCC1c2ccccc2-c2ccccc21)C(=O)N[C@@H](Cc1c[nH]c2ccccc12)C(=O)N[C@@H](Cc1ccc(O)cc1)C(=O)N[C@H](CO)C(N)=O [(KFmoc)WYs-NH2] (Fmoc-KWY[dS]-NH2) | 106 (≈ 132 µM) | 27 | 353 (≈ 439 µM) | 5 (≈ 6.22 µM) | 5 (≈ 6.22 µM) | – | – | – | – | –
NCCCC[C@H](NC(=O)OCC1c2ccccc2-c2ccccc21)C(=O)N[C@@H](Cc1c[nH]c2ccccc12)C(=O)N[C@@H](Cc1ccc(O)cc1)C(=O)N[C@H](Cc1c[nH]cn1)C(N)=O [(KFmoc)WYh-NH2] (Fmoc-KWY[dH]-NH2) | 40 (≈ 46.8 µM) | 73 | 192 (≈ 225 µM) | 7 (≈ 8.2 µM) | 8 (≈ 9.37 µM) | – | – | – | – | –
N=C(N)NCCC[C@@H](NC(=O)[C@H](Cc1ccc(O)cc1)NC(=O)[C@H](Cc1c[nH]c2ccccc12)NC(=O)[C@H](CCCCN)NC(=O)OCC1c2ccccc2-c2ccccc21)C(N)=O [(KFmoc)WYr-NH2] (Fmoc-KWY[dR]-NH2) | 16 (≈ 18.3 µM) | 31 | 109 (≈ 125 µM) | 4 (≈ 4.58 µM) | 4 (≈ 4.58 µM) | – | – | – | – | –
(KFmoc)ci(Thiopro)-NH2 | – | – | – | – | – | 25 | 197 | 9 | 6 | –
C[C@H](O)[C@@H](NC(=O)[C@H](CCCCN)NC(=O)[C@H](Cc1c[nH]c2ccccc12)NC(=O)[C@H](CCCCN)NC(=O)OCC1c2ccccc2-c2ccccc21)C(N)=O [(KFmoc)WKt-NH2] (Fmoc-KWK[dT]-NH2) | 55 (≈ 70.2 µM) | 435 | 292 (≈ 373 µM) | 10 (≈ 12.8 µM) | 7 (≈ 8.94 µM) | – | – | – | – | –
(KFmoc)Wf(aAIB)-NH2 | – | – | – | – | – | 27 | 62 | 4 | 4 | 383
(KFmoc)ci(KCBZ)-NH2 | – | 53 | – | – | – | 15 | 78 | 5 | 3 | –
(KFmoc)WK(Hyp)-NH2 | 62 | – | 370 | 10 | 10 | – | – | – | – | –
